In patent US20130053434A1, “IRREVERSIBLE INHIBITORS USEFUL FOR THE TREATMENT OF KINASE-RELATED PATHOLOGIES” (CENTRE NATIONAL DE LA RECHERCHE SCIENTIFIQUE, priority 2009, published 2013):
pIC50: −log10 of the molar value.

How the values were obtained:
[1] = inactivation by thiols such as DTT or GST; format: in vitro ADME
[2] = plasma half-life; format: in vitro ADME
[3] = biological target: VEGFR2 (Homo sapiens, UniProt P35968); assay: cellular inhibition of VEGFR2; format: cell-based; details: triplicate
Protocol: FIG. 21. […] Assays were performed in triplicate.
To gage the undiscriminate reactivity of these enone resorcylic acids with thiols, fluoroenone 2 and the parent analogue lacking the fluoride were treated with one equivalent of DTT (2 mM) as a prototypical thiol nucleophile in PBS (pH 7.4) containing 1% DMSO. […] With fluoroenone 1 and 2 in hand, we tested their efficacy against VEGF-R2 which was frequently found to be the most inhibited kinase in our profile of cis-enone resorcylic acid library (Dakas, P. Y., et al. (2007) Angew. Chem. Int. Ed. Engl. 46, 6899-902; Jogireddy, R., et al. (2009) Chem. Eur. J. 15, 11498-506) and KIT which represents a less inhibited kinase. […] Their cellular activity against VEGF-R2 did parallel the biochemical activity. […] During the course of our investigation, a similar modification was reported by researchers from Esai (Du, H., et al. (2009) Bioorg. Med. Chem. Lett. 19, 6196-9) however, their medicinal chemistry efforts focused the inhibition of inflammation related pathways (MEKs and their down-stream regulatory effect on cytokines) (Du, H., et al. (2009) Bioorg. Med. Chem. Lett. 19, 6196-9; Goto, M., et al. (2009) J. Pharmacol. Exp. Ther. 331, 485-95). […]

[4] = biological target: MEK (Homo sapiens, UniProt Q02750); details: reported values; read-out: MEK inhibition; cited from earlier work
[5] = biological target: ERK2 (Homo sapiens, UniProt P28482); details: Nakajima and Miyake; cited from earlier work
[6] = in vivo; cited from earlier work

VEGFR2, sequence (P35968 20-1356, species assumed): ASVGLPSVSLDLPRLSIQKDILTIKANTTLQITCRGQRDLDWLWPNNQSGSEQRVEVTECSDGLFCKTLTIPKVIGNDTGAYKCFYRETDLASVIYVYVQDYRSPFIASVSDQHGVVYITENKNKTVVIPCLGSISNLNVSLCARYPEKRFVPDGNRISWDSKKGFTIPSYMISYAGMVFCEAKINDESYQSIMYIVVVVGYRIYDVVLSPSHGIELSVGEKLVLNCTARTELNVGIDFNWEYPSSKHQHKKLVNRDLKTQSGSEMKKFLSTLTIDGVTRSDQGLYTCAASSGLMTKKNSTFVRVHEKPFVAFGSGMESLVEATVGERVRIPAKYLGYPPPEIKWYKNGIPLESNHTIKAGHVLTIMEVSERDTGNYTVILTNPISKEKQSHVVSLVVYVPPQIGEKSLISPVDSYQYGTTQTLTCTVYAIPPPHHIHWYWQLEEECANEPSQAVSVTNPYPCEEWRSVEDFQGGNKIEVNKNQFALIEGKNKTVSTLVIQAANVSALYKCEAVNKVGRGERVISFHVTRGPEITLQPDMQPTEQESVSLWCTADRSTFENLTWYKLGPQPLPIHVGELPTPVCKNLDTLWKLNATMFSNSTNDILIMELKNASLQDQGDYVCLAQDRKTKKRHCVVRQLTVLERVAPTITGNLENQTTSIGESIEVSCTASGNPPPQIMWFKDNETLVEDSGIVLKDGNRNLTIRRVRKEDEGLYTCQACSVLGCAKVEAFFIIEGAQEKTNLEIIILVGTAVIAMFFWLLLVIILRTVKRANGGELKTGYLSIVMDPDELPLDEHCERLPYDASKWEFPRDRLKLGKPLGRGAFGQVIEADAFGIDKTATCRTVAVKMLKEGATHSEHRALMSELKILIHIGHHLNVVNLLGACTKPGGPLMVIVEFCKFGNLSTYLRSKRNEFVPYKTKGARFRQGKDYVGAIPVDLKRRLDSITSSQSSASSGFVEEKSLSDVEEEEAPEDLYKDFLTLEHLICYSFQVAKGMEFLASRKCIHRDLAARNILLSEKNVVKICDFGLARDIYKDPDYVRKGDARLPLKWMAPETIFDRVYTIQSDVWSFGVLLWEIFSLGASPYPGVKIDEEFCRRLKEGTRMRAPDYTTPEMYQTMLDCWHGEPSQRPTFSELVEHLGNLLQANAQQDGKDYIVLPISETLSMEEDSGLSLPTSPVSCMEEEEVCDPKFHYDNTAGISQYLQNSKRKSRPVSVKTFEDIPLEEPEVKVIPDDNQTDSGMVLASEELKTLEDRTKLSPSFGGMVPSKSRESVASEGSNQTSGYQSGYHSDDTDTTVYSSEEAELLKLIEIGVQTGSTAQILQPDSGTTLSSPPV
ERK2, sequence (P28482 whole entry, species assumed): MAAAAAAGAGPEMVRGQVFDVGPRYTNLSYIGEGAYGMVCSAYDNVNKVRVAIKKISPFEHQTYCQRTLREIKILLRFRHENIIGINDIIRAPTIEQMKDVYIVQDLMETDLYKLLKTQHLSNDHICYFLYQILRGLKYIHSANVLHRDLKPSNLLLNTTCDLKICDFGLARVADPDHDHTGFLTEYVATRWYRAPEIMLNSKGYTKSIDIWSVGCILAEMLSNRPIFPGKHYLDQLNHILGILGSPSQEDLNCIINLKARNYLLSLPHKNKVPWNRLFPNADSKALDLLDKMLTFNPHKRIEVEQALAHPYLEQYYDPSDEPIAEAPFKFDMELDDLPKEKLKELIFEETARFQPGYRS
MEK, sequence (Q02750 whole entry): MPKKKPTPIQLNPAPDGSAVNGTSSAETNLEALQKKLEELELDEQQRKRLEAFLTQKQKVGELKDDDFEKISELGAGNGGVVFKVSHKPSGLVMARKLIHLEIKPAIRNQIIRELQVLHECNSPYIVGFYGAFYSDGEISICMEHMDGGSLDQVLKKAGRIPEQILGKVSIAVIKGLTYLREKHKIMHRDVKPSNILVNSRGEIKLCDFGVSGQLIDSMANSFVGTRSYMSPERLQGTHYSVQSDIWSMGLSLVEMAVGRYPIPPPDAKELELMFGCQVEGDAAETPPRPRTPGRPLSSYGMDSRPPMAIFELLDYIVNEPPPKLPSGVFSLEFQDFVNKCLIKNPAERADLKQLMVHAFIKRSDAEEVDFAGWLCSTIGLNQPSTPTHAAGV

## COc1cc(O)c2c(c1)/C=C/C[C@H](O)[C@H](O)C(=O)/C=C\C[C@H](C)OC2=O [LL-Z1640-2]
[1]
  inactivation by thiols: inactivated by thiols such as DTT or GST
[2]
  plasma half-life: short plasma half-life
[3]
  pIC50: 8.19
[4]
  pIC50: 6.39
[5]
  difference in activity between LL-Z1640-2 and L-783277 in inhibition of ERK2: 50 fold
[6]
  efficacy in animal models: effective in animal models
